Results as given in PubChem BioAssay (NCI).
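Values below derive from 48-hour exposures of cells grown in 96-well plates, with endpoints linearly interpolated between the two concentrations bracketing the appropriate inhibition level. At the GI50, growth is halved. TGI: concentration producing complete growth inhibition.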

Tests used:
Assay in all cases: NCI tumour cell line growth inhibition, 48 h
M14 melanoma = tested on: M14 melanoma
SNB-19 CNS = tested on: SNB-19 CNS
DU-145 prostate = tested on: DU-145 prostate
MALME-3M melanoma = tested on: MALME-3M melanoma
NCI/ADR-RES ovarian = tested on: NCI/ADR-RES ovarian
U251 CNS = tested on: U251 CNS
TK-10 renal = tested on: TK-10 renal
PC-3 prostate = tested on: PC-3 prostate
OVCAR-5 ovarian = tested on: OVCAR-5 ovarian
HS 578T breast = tested on: HS 578T breast
CCRF-CEM leukemia = tested on: CCRF-CEM leukemia
HCC-2998 colon = tested on: HCC-2998 colon
UO-31 renal = tested on: UO-31 renal
OVCAR-8 ovarian = tested on: OVCAR-8 ovarian
COLO 205 colon = tested on: COLO 205 colon
RXF 393 renal = tested on: RXF 393 renal
ACHN renal = tested on: ACHN renal
EKVX NSCLC = tested on: EKVX NSCLC
SF-539 CNS = tested on: SF-539 CNS
MCF7 breast = tested on: MCF7 breast
UACC-62 melanoma = tested on: UACC-62 melanoma
T-47D breast = tested on: T-47D breast
SK-MEL-28 melanoma = tested on: SK-MEL-28 melanoma
NCI-H460 lung = tested on: NCI-H460 lung
NCI-H23 lung = tested on: NCI-H23 lung
SN12C renal = tested on: SN12C renal
A549 NSCLC = tested on: A549 NSCLC
IGROV1 ovarian = tested on: IGROV1 ovarian

## COc1cc2c(cc1OCCCCCn1c(-c3ccc(OCc4ccccc4)cc3)nc3cc(N4CCOCC4)ccc31)N=C[C@@H]1CCCN1C2=O
M14 melanoma
  GI50: 2 µM
  TGI: 4.56 µM
SNB-19 CNS
  GI50: 3.71 µM
  TGI: > 49.8 µM
DU-145 prostate
  GI50: 2.57 µM
  TGI: 11.3 µM
MALME-3M melanoma
  GI50: 2.08 µM
  TGI: 4.49 µM
NCI/ADR-RES ovarian
  GI50: 3.3 µM
  TGI: 26.1 µM
U251 CNS
  GI50: 2.23 µM
  TGI: > 100 µM
TK-10 renal
  GI50: 3.45 µM
  TGI: > 36.2 µM
PC-3 prostate
  GI50: 3.88 µM
  TGI: > 100 µM
OVCAR-5 ovarian
  GI50: 3.49 µM
  TGI: > 28.9 µM
HS 578T breast
  GI50: 2.84 µM
  TGI: 12.8 µM
CCRF-CEM leukemia
  GI50: 1.4 µM
HCC-2998 colon
  GI50: 2.09 µM
  TGI: 4.14 µM
UO-31 renal
  GI50: 0.377 µM
OVCAR-8 ovarian
  GI50: 2.78 µM
  TGI: > 50.9 µM
COLO 205 colon
  GI50: 2.15 µM
  TGI: 5.13 µM
RXF 393 renal
  TGI: 2.38 µM
ACHN renal
  GI50: 2.63 µM
  TGI: 8.31 µM
EKVX NSCLC
  GI50: 4.74 µM
  TGI: 20.7 µM
SF-539 CNS
  GI50: 2.42 µM
  TGI: 5.41 µM
MCF7 breast
  GI50: 1.18 µM
  TGI: 8.77 µM
UACC-62 melanoma
  GI50: 1.72 µM
  TGI: 3.67 µM
T-47D breast
  GI50: 2.17 µM
  TGI: 7.73 µM
SK-MEL-28 melanoma
  GI50: 2.18 µM
  TGI: 4.61 µM
NCI-H460 lung
  GI50: 2.17 µM
  TGI: 5.93 µM
NCI-H23 lung
  GI50: 2.62 µM
  TGI: 6.53 µM
SN12C renal
  GI50: 3.11 µM
  TGI: 47 µM
A549 NSCLC
  GI50: 2.43 µM
  TGI: 7.95 µM
IGROV1 ovarian
  GI50: 1.17 µM
  TGI: 5.88 µM
